Data reported in US20100113392A1, “METHODS OF USING SAHA AND BORTEZOMIB FOR TREATING MULTIPLE MYELOMA” (priority 2006, published 2010).

Columns and labels:
[1] = tested on: relapsed and refractory multiple myeloma; experiment: Phase I clinical trial of oral Vorinostat plus Bortezomib: response; format: in vivo, human; conditions: dexamethasone 20 mg p.o. days 4-8 added to Vorinostat and Bortezomib for nonresponders
[2] = Pharmacokinetics of Vorinostat in the Phase I trial
[3] = Phase I clinical trial of oral Vorinostat plus Bortezomib: MTD, safety and tolerability; format: in vivo, human; conditions: Vorinostat 500 mg daily with Bortezomib […]^2, cycle 1, 2 patients
Method: This was a multicenter, open label, escalating dose, Phase I study of Vorinostat in combination with intravenous Bortezomib injection in patients eligible for Bortezomib therapy. […] Patients on Dose Levels 1-5 were administered Bortezomib as an intravenous (IV) bolus on Days 1, 4, 8 and 11.
At the beginning of the study, five 3-patient cohorts were evaluated at various dose levels as outlined in the Table 1 and Table 2 below.
In the absence of treatment delays due to adverse events, treatment continued for 8-cycles or until one of the following criteria applied: • a) disease progression • b) intercurrent illness that prevents further administration of treatment • c) unacceptable adverse events • d) patient decides to withdraw from the study • e) general or specific changes in the patient's condition render the patient unacceptable for further treatment in the judgment of the investigator. • f) if the patient achieves a complete remission, they continue on the study for a total of 8 cycles.
Further studies enrolled up to 40 adult patients with multiple myeloma, relapsed or refractory disease. One treatment cycle was 3 weeks or 21 days. […] Although the current FDA approved Bortezomib dose for relapsed myeloma patients to be […], if toxicity occurred, the subsequent dose of Bortezomib was going to be decreased to 0.7 mg/m^2. […] Other Bortezomib dose to be tested was 1.3 mg/m^2.

9-fluoro-1′-beta,17,21-trihydroxy-16-alpha-methylpregna-1,4-diene-3,20-dione [dexamethasone]
effect of added dexamethasone on response [1]: no upgrade in response

O=C(CCCCCCC(=O)Nc1ccccc1)NO [Vorinostat, N-Hydroxy-N′-phenyl octanediamide]
effect of administration after Bortezomib on pharmacokinetics ([2]; Vorinostat given after Bortezomib): did not affect pharmacokinetics | dose dependence of pharmacokinetics ([2]; single oral dose, 100-500 mg): linear | toxicities defining the MTD in cycle 1 [3]: grade 4 prolonged QT interval and grade 4 fatigue
